From ChEMBL document CHEMBL5465560, “Selectivity Literature for EUbOPEN Chemogenomic Library” (2024)

Tests used:
[1] = target: Serine/threonine-protein kinase MRCK alpha (Homo sapiens) (UniProt Q5VT25); test: Selectivity interaction (KinomeScan (DiscoverX)) EUB0000229b CDC42BPA; conditions: at 10 µM
[2] = target: Calcium/calmodulin-dependent protein kinase type II subunit beta (Homo sapiens) (UniProt Q13554); test: Selectivity interaction (KinomeScan (DiscoverX)) EUB0000595a CAMK2B; conditions: at 10 µM
[3] = target: Histone-lysine N-methyltransferase, H3 lysine-79 specific (Homo sapiens, UniProt Q8TEK3); test: Selectivity interaction (Methyltransferase screen (radiometric assays, panel of 8 PRMTs, 21 protein lysine methyltransferases, 3 DNA methyltransferases, and one RNA methyltransferase)) EUB0000271b DOT1L
[4] = target: T1, Aurora kinase A (Homo sapiens) (UniProt O14965); test: Selectivity interaction (SelectScreen profiling (Invitrogen)) EUB0000607a STK6; conditions: at 2 µM
T1 sequence (whole entry): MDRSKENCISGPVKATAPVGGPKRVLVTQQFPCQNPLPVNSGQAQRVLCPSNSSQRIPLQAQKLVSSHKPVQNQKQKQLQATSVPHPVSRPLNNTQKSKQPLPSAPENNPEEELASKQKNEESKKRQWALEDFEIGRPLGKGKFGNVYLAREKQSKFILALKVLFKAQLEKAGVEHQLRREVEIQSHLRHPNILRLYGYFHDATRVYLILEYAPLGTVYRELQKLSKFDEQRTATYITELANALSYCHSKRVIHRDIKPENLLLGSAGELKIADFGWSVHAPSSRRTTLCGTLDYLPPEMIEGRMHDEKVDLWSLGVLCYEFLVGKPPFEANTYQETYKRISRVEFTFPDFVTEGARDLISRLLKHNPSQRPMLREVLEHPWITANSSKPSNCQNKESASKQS

[5] = target: Serine/threonine-protein kinase OSR1 (Homo sapiens) (UniProt O95747); test: Selectivity interaction (KinomeScan (DiscoverX)) EUB0000618a OXSR1; conditions: at 10 µM
[6] = target: T2, Serine/threonine-protein kinase ULK3 (Homo sapiens) (UniProt Q6PHR2); test: Selectivity interaction (ActivX KiNativ screen (kinase selectivity in THP-1 cell lysates)) EUB0000639a ULK3; format: subcellular; conditions: lysate
T2 sequence (whole entry): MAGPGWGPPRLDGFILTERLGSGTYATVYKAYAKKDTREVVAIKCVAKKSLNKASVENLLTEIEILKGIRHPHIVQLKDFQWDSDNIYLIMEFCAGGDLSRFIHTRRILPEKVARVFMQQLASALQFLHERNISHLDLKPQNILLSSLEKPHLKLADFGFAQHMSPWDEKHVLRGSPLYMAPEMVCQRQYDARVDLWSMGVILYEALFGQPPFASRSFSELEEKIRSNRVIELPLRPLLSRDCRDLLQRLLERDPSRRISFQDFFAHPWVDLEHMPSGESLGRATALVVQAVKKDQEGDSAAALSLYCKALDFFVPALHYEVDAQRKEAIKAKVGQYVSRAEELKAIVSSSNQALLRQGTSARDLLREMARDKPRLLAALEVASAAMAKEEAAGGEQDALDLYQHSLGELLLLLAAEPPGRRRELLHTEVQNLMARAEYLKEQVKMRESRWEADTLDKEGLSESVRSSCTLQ

[7] = target: T3, Cyclin-dependent kinase 11A (Homo sapiens) (UniProt Q9UQ88); test: Selectivity interaction (KinomeScan (DiscoverX)) EUB0000655a CDK11A; conditions: at 10 µM
T3 sequence (whole entry): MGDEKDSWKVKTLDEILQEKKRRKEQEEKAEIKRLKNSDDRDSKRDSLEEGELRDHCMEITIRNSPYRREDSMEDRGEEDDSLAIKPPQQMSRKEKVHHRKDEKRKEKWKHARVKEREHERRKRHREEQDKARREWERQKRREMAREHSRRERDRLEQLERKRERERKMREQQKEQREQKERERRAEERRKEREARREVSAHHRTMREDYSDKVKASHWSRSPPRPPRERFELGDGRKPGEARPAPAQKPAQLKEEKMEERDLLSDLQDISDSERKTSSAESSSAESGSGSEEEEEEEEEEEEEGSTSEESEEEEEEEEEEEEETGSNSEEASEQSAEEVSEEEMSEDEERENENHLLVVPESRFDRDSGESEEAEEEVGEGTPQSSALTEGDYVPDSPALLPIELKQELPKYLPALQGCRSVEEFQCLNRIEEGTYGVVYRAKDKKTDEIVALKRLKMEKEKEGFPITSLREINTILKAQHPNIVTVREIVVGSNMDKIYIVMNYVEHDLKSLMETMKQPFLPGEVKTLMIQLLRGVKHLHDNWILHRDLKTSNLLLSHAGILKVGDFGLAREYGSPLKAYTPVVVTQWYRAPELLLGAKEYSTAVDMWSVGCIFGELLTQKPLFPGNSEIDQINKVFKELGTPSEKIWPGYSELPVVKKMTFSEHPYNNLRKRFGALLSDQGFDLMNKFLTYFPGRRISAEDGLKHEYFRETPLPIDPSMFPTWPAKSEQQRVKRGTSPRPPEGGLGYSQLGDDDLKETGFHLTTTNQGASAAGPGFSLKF

[8] = target: Dual specificity tyrosine-phosphorylation-regulated kinase 1A (Homo sapiens, UniProt Q13627); test: Selectivity interaction (Ambit KINOMEscan and KiNATiv profiling in Jurkat cells) EUB0000090b DYRK1A; format: cell-based; conditions: at 1 µM

Sequence of Histone-lysine N-methyltransferase, H3 lysine-79 specific (Q8TEK3 whole entry, looked up): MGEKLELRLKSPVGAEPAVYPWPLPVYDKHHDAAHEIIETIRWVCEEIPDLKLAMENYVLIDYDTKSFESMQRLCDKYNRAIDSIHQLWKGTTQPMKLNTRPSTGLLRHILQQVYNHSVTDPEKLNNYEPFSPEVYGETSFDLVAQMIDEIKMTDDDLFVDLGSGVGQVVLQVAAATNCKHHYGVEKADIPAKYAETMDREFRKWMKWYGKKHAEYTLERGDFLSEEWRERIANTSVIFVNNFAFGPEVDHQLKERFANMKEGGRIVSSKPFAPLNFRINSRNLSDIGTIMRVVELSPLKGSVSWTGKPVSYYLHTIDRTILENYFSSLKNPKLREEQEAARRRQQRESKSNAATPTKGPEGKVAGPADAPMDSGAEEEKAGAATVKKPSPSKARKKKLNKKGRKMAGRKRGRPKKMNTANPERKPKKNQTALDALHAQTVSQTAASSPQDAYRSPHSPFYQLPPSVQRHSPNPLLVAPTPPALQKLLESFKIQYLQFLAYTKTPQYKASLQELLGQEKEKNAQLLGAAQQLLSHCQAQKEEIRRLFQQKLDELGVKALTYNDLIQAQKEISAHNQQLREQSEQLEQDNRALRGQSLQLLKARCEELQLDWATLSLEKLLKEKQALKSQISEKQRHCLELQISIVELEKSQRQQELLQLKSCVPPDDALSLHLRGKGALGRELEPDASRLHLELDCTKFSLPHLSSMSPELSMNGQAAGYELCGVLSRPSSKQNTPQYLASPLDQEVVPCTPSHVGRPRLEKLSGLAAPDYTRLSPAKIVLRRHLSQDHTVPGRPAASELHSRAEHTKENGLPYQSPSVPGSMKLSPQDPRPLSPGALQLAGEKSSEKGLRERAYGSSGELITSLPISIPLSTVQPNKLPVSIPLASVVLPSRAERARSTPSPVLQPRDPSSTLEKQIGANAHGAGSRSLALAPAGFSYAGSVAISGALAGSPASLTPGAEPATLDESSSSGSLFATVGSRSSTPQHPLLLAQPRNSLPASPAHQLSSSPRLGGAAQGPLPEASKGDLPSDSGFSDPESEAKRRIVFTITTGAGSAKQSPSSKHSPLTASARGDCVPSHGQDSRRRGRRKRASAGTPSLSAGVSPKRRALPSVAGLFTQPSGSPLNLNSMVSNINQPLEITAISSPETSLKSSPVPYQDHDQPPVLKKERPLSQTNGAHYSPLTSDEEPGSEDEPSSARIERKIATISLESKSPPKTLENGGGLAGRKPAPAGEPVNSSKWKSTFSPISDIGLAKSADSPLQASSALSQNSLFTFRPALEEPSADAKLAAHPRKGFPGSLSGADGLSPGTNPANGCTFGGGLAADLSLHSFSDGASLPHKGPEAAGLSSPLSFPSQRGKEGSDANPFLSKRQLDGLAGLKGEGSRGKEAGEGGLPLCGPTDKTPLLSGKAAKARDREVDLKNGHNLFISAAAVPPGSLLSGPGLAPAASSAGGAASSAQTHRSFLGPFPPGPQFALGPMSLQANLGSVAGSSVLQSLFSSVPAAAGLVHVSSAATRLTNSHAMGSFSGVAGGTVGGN
Sequence of Serine/threonine-protein kinase MRCK alpha (Homo sapiens) (Q5VT25 whole entry): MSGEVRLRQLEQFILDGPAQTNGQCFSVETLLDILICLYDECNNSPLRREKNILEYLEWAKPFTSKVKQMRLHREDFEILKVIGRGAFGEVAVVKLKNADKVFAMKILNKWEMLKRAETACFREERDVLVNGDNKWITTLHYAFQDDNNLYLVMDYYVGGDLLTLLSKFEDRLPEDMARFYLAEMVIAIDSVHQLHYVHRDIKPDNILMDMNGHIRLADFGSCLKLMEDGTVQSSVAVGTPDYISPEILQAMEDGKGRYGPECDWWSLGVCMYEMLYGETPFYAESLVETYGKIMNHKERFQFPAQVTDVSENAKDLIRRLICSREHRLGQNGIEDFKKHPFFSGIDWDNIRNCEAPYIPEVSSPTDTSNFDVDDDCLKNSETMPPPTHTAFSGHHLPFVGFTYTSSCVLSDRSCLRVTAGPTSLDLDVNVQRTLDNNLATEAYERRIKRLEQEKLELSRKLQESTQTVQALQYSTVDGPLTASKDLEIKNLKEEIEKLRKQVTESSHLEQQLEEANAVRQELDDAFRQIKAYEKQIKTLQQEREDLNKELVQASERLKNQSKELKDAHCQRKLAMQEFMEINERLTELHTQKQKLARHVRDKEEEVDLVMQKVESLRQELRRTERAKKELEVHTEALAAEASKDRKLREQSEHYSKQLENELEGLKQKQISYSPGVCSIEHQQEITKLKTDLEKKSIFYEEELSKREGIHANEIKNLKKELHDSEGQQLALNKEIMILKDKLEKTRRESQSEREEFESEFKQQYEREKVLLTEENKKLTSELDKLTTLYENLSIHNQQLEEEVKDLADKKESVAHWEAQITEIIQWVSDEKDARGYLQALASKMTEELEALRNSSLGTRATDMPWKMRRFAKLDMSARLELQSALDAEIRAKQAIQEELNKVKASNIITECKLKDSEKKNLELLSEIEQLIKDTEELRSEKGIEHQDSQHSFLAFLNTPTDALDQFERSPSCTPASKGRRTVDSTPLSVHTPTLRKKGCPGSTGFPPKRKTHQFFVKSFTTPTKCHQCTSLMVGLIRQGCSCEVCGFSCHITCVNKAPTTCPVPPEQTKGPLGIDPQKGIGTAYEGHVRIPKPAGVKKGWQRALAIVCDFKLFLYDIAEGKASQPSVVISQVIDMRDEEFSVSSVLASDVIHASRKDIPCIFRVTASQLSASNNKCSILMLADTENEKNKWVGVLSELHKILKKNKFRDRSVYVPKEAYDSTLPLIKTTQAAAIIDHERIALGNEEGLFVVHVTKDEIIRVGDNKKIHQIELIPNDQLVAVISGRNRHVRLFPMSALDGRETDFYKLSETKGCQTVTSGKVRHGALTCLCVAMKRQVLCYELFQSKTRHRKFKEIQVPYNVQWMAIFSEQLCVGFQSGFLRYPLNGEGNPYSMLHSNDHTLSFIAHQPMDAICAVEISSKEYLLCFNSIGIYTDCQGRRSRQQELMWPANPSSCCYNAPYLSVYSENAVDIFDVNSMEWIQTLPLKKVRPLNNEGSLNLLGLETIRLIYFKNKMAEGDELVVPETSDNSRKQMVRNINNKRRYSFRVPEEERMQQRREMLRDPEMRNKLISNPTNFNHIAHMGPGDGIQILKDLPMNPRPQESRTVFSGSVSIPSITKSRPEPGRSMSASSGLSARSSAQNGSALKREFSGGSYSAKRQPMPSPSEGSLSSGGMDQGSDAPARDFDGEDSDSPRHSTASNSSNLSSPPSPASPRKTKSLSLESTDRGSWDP
Sequence of Serine/threonine-protein kinase OSR1 (Homo sapiens) (O95747 2-527 limits assumed): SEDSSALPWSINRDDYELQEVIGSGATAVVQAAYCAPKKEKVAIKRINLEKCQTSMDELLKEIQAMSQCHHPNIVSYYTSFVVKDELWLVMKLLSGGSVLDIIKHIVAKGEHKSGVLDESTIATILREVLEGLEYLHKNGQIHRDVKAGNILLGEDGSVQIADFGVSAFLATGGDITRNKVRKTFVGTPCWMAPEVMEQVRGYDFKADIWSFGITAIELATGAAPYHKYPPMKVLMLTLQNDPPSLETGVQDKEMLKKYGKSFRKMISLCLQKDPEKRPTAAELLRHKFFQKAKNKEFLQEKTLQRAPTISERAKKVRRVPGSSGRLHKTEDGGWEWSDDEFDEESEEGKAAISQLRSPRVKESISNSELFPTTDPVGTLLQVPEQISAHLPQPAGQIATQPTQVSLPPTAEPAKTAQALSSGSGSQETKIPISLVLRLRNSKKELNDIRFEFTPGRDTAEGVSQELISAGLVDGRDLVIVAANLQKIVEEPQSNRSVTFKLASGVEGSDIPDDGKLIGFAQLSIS
Sequence of Calcium/calmodulin-dependent protein kinase type II subunit beta (Homo sapiens) (Q13554 whole entry): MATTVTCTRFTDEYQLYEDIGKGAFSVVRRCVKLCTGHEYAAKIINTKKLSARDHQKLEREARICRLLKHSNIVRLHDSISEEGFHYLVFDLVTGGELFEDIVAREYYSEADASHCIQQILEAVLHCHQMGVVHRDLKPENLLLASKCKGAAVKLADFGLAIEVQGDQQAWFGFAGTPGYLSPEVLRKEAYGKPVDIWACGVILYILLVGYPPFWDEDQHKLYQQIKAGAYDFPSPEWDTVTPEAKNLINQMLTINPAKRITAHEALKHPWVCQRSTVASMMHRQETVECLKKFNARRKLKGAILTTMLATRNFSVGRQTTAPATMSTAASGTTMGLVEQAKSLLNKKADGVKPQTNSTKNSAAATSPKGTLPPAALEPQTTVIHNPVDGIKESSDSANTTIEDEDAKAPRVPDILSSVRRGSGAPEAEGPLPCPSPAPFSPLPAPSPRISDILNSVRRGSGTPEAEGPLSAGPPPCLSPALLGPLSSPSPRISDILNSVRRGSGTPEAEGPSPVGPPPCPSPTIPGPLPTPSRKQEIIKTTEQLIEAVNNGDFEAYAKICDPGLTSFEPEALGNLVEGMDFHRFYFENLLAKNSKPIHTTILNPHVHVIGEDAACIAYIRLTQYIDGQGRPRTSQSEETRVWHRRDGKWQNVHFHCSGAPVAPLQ

## COc1cc(N(C)c2ccnc3ccc(C(F)(F)F)cc23)cc(OC)c1OC
[1]
  % binding: 100%

## COCC(=O)NC/C=C/c1ccc2ncnc(Nc3ccc(Oc4ccc(C)nc4)c(C)c3)c2c1 [CP-724714]
[2]
  % of control: 88%

## Cc1cc(C)cc([C@@H]2c3cc(C)ccc3NC(=O)CN2C(=O)c2ccc(Br)s2)c1
[3]; at 1 µM
  % of activity: 102%
[3]; at 10 µM
  % of activity: 92.7%

## CNC(=O)Nc1ccc(-c2nc(N3CC4CCC(C3)O4)c3cnn(C4CCC5(CC4)OCCO5)c3n2)cc1
[4]
  % of inhibition: 0%

## O[C@H]1CC[C@H](Nc2ncc3nc(Nc4c(F)cc(F)cc4F)n([C@H]4CCOC4)c3n2)CC1
[5]
  % of control: 100%

## CC[C@@H]1[C@H](F)C(=O)N[C@@H]1COc1nccc2cc(C(N)=O)c(OC)cc12 [ZIMLOVISERTIB]
[6]; at 0.01 µM
  % of inhibition: 11.3%
[6]; at 0.04 µM
  % of inhibition: 2.1%
[6]; at 0.2 µM
  % of inhibition: 3.4%
[6]; at 1 µM
  % of inhibition: 5.1%
[6]; at 5 µM
  % of inhibition: -3.4%

## CN(C)CCOc1ccc(-c2nc(-c3ccncc3)c(-c3ccc4c(c3)CC/C4=N\O)[nH]2)cc1
[7]
  % of control: 86%

## CN(C)C/C=C/C(=O)Nc1ccc(C(=O)N2CCCC(Nc3ncc(Cl)c(-c4c[nH]c5ccccc45)n3)C2)cc1 (stereo not drawn)
[8]
  % of control: 30%
